In PMC5623949, “Exploiting the 2-Amino-1,3,4-thiadiazole Scaffold To Inhibit Trypanosoma brucei Pteridine Reductase in Support of Early-Stage Drug Discovery” (ACS Omega, 2017):
Like-named read-outs stand apart in the source and are kept apart here.

Legend:
TbPTR1 = biological target: T1, TbPTR1 (Trypanosoma brucei brucei, UniProt O76290); test: biochemical; conditions: read-out: % Inhibition TbPTR1 at 50 μM
T1 construct: made in house
T1 sequence (O76290 1-268): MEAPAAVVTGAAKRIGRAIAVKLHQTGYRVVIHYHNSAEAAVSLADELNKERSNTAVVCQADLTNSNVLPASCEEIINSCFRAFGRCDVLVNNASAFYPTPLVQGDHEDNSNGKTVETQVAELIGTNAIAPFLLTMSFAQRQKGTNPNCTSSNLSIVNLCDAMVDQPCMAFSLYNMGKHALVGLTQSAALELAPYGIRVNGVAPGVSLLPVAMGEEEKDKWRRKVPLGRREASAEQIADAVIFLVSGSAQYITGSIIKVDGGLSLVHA

[1] = test system: T. b. brucei Lister 427 bloodstream forms; test: In vitro activity against T. brucei (HTS SYBR Green I growth inhibition assay); type: cell-based, Trypanosoma brucei brucei; conditions: Trypanosoma brucei; for inhibition at 50 µM: read-out: % Inhibition T. brucei at 50 μM
hERG = biological target: T2, hERG (Homo sapiens, UniProt Q12809); set-up: hERG inhibition liability assay
T2 construct: gene KCNH2

CYP1A2 = biological target: T3, CYP1A2 (Homo sapiens, UniProt P05177); test: in vitro; set-up: cytochrome P450 isoform inhibition liability assay
T3 sequence (P05177 1-516): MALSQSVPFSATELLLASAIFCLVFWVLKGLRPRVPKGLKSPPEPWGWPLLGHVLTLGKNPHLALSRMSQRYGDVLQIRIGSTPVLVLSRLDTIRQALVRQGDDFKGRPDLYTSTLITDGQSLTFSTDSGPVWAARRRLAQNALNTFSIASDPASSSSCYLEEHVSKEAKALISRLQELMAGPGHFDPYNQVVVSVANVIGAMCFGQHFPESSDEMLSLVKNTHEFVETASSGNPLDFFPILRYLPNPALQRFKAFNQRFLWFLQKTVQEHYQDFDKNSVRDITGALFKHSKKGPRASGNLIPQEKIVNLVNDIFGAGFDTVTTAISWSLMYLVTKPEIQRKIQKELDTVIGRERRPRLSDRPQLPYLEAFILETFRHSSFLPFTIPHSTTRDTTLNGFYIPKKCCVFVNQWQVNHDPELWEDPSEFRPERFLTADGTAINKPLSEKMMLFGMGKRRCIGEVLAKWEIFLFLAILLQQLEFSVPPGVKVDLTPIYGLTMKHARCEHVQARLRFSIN

CYP2C19 = CYP2C19 (Homo sapiens, UniProt P33261); test: in vitro; set-up: cytochrome P450 isoform inhibition liability assay
CYP2C9 = CYP2C9 (Homo sapiens, UniProt P11712); test: in vitro; set-up: cytochrome P450 isoform inhibition liability assay
CYP2D6 = CYP2D6 (Homo sapiens, UniProt P10635); test: in vitro; set-up: cytochrome P450 isoform inhibition liability assay
CYP3A4 = CYP3A4 (Homo sapiens, UniProt P08684); test: in vitro; set-up: cytochrome P450 isoform inhibition liability assay
hDHFR = biological target: T4, hDHFR (Homo sapiens, UniProt P00374); test: biochemical; set-up: human DHFR enzyme inhibition
T4 construct: gene DHFR
T4 sequence (P00374 1-187): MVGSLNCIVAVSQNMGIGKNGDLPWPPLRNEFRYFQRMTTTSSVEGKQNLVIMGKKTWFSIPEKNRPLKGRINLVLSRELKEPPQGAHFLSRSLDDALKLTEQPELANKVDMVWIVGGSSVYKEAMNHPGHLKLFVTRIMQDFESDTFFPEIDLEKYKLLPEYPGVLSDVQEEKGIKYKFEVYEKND
Description: Figure 10 Summary heat map of the in vitro assays to determine possible liability issues for all synthesized compounds. Assays were performed to assess inhibition of hERG and five CYP isoforms (1A2, 2C9, 2C19, 2D6, and 3A4), growth inhibition of A549 and W1-38 cell lines, and mitochondrial toxicity at 10 μM. The hDHFR inhibition was determined at 100 μM. The data, expressed as percentage values, were organized by adopting a color code for rapid and intuitive visualization. The ideal compound should have all tiles blue, indicating a safe toxicological profile for progressing into the development pipeline. The cells are colored from blue (100% of cell growth at the tested concentration) to red (0% of cell growth at the tested concentration) for A549 and W1-38 and from blue (0% of inhibitory activity at the tested concentration) to red (100% of inhibitory activity at the tested concentration) for CYP isoforms, hERG, hDHFR, and mitochondrial toxicity.

786-O = test: cells; set-up: mitochondrial toxicity in 786-O renal carcinoma cells; conditions: Homo sapiens, 786-0; mitochondrial toxicity
in vitro [2] = test: in vitro; set-up: cytotoxicity, per cent cell growth of A549 cells; conditions: human, a549 cells; read-out: % cell growth A549 at 10uM
in vitro [3] = test: in vitro; set-up: cytotoxicity, per cent cell growth of WI-38 fibroblasts; conditions: human, wi-38 cells; read-out: % cell growth W1-38 at 10uM
[4] = 50 μM, standard deviation within ±10% of the value

Chain of CYP3A4 (P08684 whole entry, canonical isoform): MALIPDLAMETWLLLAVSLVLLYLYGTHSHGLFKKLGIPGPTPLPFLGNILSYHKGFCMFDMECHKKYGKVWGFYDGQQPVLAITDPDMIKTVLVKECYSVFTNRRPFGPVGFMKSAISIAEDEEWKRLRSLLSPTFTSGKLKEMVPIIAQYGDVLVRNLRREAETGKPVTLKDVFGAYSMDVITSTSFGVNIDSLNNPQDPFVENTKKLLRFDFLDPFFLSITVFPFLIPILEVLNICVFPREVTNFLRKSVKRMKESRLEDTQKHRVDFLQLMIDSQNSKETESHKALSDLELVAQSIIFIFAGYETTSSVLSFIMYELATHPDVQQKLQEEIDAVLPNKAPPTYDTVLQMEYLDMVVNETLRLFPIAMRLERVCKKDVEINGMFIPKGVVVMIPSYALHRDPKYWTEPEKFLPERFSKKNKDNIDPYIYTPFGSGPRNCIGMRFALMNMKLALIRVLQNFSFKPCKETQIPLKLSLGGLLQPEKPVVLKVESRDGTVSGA
T2 sequence (Q12809 whole entry): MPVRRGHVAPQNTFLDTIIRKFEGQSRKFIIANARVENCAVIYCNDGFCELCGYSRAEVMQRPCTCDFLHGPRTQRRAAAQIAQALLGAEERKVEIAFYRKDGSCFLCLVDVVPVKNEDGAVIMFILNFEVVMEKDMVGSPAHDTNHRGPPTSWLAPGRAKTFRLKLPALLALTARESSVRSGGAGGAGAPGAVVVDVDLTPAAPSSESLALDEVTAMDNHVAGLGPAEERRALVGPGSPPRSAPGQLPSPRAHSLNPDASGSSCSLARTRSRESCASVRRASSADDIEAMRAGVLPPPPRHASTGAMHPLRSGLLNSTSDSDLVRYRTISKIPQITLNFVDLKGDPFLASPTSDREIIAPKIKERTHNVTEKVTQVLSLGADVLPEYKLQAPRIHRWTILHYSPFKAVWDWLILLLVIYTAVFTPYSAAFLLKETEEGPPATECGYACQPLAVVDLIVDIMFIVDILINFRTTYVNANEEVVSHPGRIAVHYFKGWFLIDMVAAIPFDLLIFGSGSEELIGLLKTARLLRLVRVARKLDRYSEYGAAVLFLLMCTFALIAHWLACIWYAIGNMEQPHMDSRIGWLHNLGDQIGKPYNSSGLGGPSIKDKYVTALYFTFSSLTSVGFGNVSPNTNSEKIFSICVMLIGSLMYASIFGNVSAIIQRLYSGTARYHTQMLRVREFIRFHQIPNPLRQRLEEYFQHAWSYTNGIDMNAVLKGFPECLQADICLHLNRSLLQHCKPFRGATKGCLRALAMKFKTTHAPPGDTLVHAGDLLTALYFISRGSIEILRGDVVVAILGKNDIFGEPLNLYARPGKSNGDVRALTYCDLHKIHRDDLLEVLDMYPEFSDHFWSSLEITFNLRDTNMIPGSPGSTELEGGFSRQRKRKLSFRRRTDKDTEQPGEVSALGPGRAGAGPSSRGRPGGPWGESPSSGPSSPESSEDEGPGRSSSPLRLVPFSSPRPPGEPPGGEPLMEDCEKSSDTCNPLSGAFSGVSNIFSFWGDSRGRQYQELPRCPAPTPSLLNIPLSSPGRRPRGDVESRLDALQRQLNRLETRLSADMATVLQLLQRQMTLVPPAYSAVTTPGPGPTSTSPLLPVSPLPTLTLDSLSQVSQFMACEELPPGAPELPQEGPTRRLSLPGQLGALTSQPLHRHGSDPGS
Chain of CYP2C19 (P33261 whole entry, canonical isoform): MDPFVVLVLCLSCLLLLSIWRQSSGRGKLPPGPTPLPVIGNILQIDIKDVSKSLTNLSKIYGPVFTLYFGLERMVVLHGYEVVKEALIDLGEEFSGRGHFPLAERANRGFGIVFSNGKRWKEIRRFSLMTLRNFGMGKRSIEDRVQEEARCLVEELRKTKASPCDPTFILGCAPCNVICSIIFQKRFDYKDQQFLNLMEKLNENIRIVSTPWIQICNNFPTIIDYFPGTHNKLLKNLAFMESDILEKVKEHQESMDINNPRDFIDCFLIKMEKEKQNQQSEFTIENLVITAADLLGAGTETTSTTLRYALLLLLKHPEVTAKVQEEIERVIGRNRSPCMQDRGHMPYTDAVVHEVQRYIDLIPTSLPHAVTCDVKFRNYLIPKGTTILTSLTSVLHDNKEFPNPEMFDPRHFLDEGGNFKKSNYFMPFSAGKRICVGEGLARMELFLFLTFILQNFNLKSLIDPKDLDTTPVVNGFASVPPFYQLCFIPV
Chain of CYP2C9 (P11712 whole entry, canonical isoform): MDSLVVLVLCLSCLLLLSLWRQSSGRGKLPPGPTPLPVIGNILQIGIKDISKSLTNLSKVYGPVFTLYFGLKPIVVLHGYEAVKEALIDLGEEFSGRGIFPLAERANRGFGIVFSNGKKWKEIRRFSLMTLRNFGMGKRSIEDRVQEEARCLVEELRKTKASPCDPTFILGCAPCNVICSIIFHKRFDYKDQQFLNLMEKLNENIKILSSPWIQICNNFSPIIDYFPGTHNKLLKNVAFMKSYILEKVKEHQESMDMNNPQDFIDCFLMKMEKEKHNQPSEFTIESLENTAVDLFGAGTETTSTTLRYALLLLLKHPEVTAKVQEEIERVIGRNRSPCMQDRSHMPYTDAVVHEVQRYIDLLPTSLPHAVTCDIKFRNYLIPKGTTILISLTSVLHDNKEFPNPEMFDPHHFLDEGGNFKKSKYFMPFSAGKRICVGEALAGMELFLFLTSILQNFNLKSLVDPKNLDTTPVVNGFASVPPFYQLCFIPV
Chain of CYP2D6 (P10635 whole entry, canonical isoform): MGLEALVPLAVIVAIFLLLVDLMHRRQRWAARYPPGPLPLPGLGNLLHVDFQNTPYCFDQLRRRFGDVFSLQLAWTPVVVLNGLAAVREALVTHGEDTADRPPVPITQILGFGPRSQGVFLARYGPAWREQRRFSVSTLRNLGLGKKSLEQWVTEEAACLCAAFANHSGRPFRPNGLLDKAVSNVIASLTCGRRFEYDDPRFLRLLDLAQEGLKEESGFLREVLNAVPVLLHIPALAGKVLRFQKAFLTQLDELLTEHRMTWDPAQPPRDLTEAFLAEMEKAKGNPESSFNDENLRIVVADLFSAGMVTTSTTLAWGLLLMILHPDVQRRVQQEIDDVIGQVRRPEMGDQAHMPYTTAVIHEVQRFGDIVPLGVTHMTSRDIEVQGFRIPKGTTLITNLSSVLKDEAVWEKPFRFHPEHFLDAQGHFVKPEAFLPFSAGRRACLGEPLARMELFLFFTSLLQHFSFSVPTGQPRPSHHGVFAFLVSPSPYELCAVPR

| Compound | inhibition at 50 µM (TbPTR1; 50 μM compound) [%] | inhibition at 50 µM [1, 4] [%] | inhibition at 10 µM (hERG) [%] | inhibition at 10 µM (CYP1A2) [%] | inhibition at 10 µM (CYP2C19) [%] | inhibition at 10 µM (CYP2C9) [%] | inhibition at 10 µM (CYP2D6) [%] | inhibition at 10 µM (CYP3A4) [%] | inhibition at 10 µM (hDHFR) [%] | inhibition at 10 µM (786-O) [%] | viability at 10 µM (in vitro [2]) [%] | viability at 10 µM (in vitro [3]) [%] | inhibition at 100 µM (hDHFR) [%] | EC50 ([1]; standard deviation within ±10% of the value, read-out: EC50 T. brucei) [µM] | inhibition at 50 µM (TbPTR1) [%] | inhibition at 50 µM [1] [%] |
| --- | --- | --- | --- | --- | --- | --- | --- | --- | --- | --- | --- | --- | --- | --- | --- | --- |
| Nc1nnc(-c2cccc(-c3ccc4c(c3)OCO4)c2)s1 [2g] | 4 ± 0.4 | 10.4 | 27.9 ± 5.2 | 97.8 ± 1 | 34.3 ± 3.7 | 28.7 ± 2.2 | 27 ± 2.36 | 28.2 ± 5 | 12 | -2.6 ± 13.7 | 116 ± 8.3 | 130 ± 14.1 |  |  |  |  |
| Nc1nnc(Cc2ccccc2)s1 [3b] | 8.1 ± 0.2 | < 0 | 11.1 ± 5.2 | -10.2 ± 1.6 | -42.6 ± 5.5 | -20.4 ± 1.8 | -41.7 ± 3.9 | -23.7 ± 5.9 |  | -7.4 ± 11.1 | 125 ± 4.8 | 120 ± 1.7 | 6 |  |  |  |
| Nc1nnc(/C=C/c2ccccc2)s1 [3h] | 34.3 ± 1.2 | 82.7 | 58.7 ± 4.9 | 25.2 ± 1.1 | 7.2 ± 9.8 | 4.1 ± 5.9 | -22.1 ± 8 | 45.9 ± 5.5 | 15 | -1.3 ± 6.6 | 138 ± 5.6 | 111 ± 42 |  | 58 |  |  |
| CN(C)CCc1nnc(N)s1 [3i] |  |  | 0.7 ± 2.8 | -3.2 ± 4.2 | -30.1 ± 15.1 | -13.5 ± 3.9 | -35.4 ± 5 | -14.3 ± 3.1 |  | -12.4 ± 3.4 | 143 ± 11.8 | 114 ± 22.2 | 12 |  | 5.6 ± 0.6 | < 0 |
| Nc1nnc(N)s1 [4a] | 14.2 ± 0.8 | < 0 | 4.7 ± 3.6 | 40.5 ± 3 | 62.3 ± 8.3 | 46 ± 1.7 | -15.9 ± 8.6 | 53.4 ± 4.4 |  | 1.7 ± 6.6 | 113 ± 4.4 | 81.3 ± 13.5 | 36 |  |  |  |
